Source: the NIST ThermoML archive (doi:10.1016/j.jct.2008.02.019)

Assays:
[1] = xn = mol fraction of the nth substance listed; details: 101 kPa, Liquid
[2] = excess molar enthalpy (molar enthalpy of mixing); xn = mol fraction of the nth substance listed; details: 101 kPa, Liquid, Flow calorimetry
[3] = 318.15 K; 101.33 kPa; Liquid; Vibrating tube method
[4] = refractive index (Na D-line) (dimensionless); details: 101.33 kPa, Liquid, Standard Abbe refractometry

CCCC[n+]1ccc(C)cc1.F[B-](F)(F)F [1-butyl-4-methylpyridinium tetrafluoroborate] + CO
Details	excess molar enthalpy [kcal/mol]	mass density [kg/m3]
[1], 298.15 K, x1 = 0.0539	–	880.6
[1], 298.15 K, x1 = 0.0819	–	916.2
[1], 298.15 K, x1 = 0.095	–	931.5
[1], 298.15 K, x1 = 0.1078	–	944.4
[1], 298.15 K, x1 = 0.1549	–	984.7
[1], 298.15 K, x1 = 0.2038	–	1017.3
[1], 298.15 K, x1 = 0.3016	–	1064.3
[1], 298.15 K, x1 = 0.3729	–	1088.5
[1], 298.15 K, x1 = 0.4548	–	1110.8
[1], 298.15 K, x1 = 0.5027	–	1120.9
[1], 298.15 K, x1 = 0.5533	–	1131.2
[1], 298.15 K, x1 = 0.6076	–	1140.4
[1], 298.15 K, x1 = 0.7174	–	1155.8
[1], 298.15 K, x1 = 0.8053	–	1165.6
[1], 298.15 K, x1 = 0.9129	–	1176
[1], 318.15 K, x1 = 0.0489	–	855.9
[1], 318.15 K, x1 = 0.096	–	915.9
[1], 318.15 K, x1 = 0.1439	–	961.3
[1], 318.15 K, x1 = 0.1894	–	994.2
[1], 318.15 K, x1 = 0.3003	–	1049.4
[1], 318.15 K, x1 = 0.3551	–	1068.5
[1], 318.15 K, x1 = 0.4349	–	1091.7
[1], 318.15 K, x1 = 0.4888	–	1103.9
[1], 318.15 K, x1 = 0.5342	–	1112.7
[1], 318.15 K, x1 = 0.5959	–	1123.9
[1], 318.15 K, x1 = 0.6592	–	1133.5
[1], 318.15 K, x1 = 0.7266	–	1142.3
[1], 318.15 K, x1 = 0.8378	–	1154.8
[1], 318.15 K, x1 = 0.9046	–	1161.4
[2], 298.15 K, x1 = 0.0155	0.0607	–
[2], 298.15 K, x1 = 0.0359	0.116	–
[2], 298.15 K, x1 = 0.0582	0.159	–
[2], 298.15 K, x1 = 0.0832	0.217	–
[2], 298.15 K, x1 = 0.1111	0.27	–
[2], 298.15 K, x1 = 0.1397	0.329	–
[2], 298.15 K, x1 = 0.1698	0.377	–
[2], 298.15 K, x1 = 0.1711	0.392	–
[2], 298.15 K, x1 = 0.1953	0.415	–
[2], 298.15 K, x1 = 0.2214	0.435	–
[2], 298.15 K, x1 = 0.2412	0.453	–
[2], 298.15 K, x1 = 0.2755	0.469	–
[2], 298.15 K, x1 = 0.3109	0.48	–
[2], 298.15 K, x1 = 0.3617	0.475	–
[2], 298.15 K, x1 = 0.427	0.453	–
[2], 298.15 K, x1 = 0.507	0.411	–
[2], 298.15 K, x1 = 0.6029	0.35	–
[2], 298.15 K, x1 = 0.7161	0.272	–
[2], 298.15 K, x1 = 0.8469	0.154	–
[2], 318.2 K, x1 = 0.0102	0.0337	–
[2], 318.21 K, x1 = 0.0238	0.0662	–
[2], 318.22 K, x1 = 0.0405	0.098	–
[2], 318.23 K, x1 = 0.0635	0.178	–
[2], 318.24 K, x1 = 0.0898	0.261	–
[2], 318.25 K, x1 = 0.1174	0.336	–
[2], 318.26 K, x1 = 0.1476	0.403	–
[2], 318.27 K, x1 = 0.1778	0.457	–
[2], 318.28 K, x1 = 0.1969	0.498	–
[2], 318.29 K, x1 = 0.2103	0.529	–
[2], 318.3 K, x1 = 0.2392	0.559	–
[2], 318.31 K, x1 = 0.2699	0.579	–
[2], 318.32 K, x1 = 0.3021	0.603	–
[2], 318.33 K, x1 = 0.3442	0.61	–
[2], 318.34 K, x1 = 0.3846	0.619	–
[2], 318.35 K, x1 = 0.4397	0.614	–
[2], 318.36 K, x1 = 0.4968	0.595	–
[2], 318.37 K, x1 = 0.5563	0.57	–
[2], 318.38 K, x1 = 0.6281	0.533	–
[2], 318.39 K, x1 = 0.7109	0.466	–
[2], 318.4 K, x1 = 0.8042	0.362	–
[2], 318.41 K, x1 = 0.8793	0.239	–
[2], 318.42 K, x1 = 0.9607	0.0937	–

CCCC[n+]1ccc(C)cc1.F[B-](F)(F)F [1-butyl-4-methylpyridinium tetrafluoroborate] + CCCCO
Details	excess molar enthalpy [kcal/mol]	mass density [kg/m3]
[1], 298.15 K, x1 = 0.5948	–	1094.4
[1], 298.15 K, x1 = 0.692	–	1120.2
[1], 298.15 K, x1 = 0.739	–	1131.5
[1], 298.15 K, x1 = 0.7851	–	1141.8
[1], 298.15 K, x1 = 0.8916	–	1163.9
[1], 318.15 K, x1 = 0.0548	–	833.2
[1], 318.15 K, x1 = 0.1169	–	875.7
[1], 318.15 K, x1 = 0.2301	–	940.7
[1], 318.15 K, x1 = 0.3406	–	992.1
[1], 318.15 K, x1 = 0.4471	–	1033.5
[1], 318.15 K, x1 = 0.564	–	1071.4
[1], 318.15 K, x1 = 0.6758	–	1102.2
[1], 318.15 K, x1 = 0.7856	–	1128.1
[1], 318.15 K, x1 = 0.8427	–	1140
[1], 318.15 K, x1 = 0.887	–	1148.6
[2], 318.15 K, x1 = 0.0242	0.112	–
[2], 318.16 K, x1 = 0.0613	0.226	–
[2], 318.17 K, x1 = 0.1029	0.339	–
[2], 318.18 K, x1 = 0.1466	0.429	–
[2], 318.19 K, x1 = 0.1938	0.527	–
[2], 318.2 K, x1 = 0.24	0.601	–
[2], 318.21 K, x1 = 0.2864	0.654	–
[2], 318.22 K, x1 = 0.3344	0.694	–
[2], 318.23 K, x1 = 0.3708	0.704	–
[2], 318.24 K, x1 = 0.4149	0.707	–
[2], 318.25 K, x1 = 0.4635	0.69	–
[2], 318.26 K, x1 = 0.5162	0.667	–
[2], 318.27 K, x1 = 0.5729	0.623	–
[2], 318.28 K, x1 = 0.6488	0.542	–
[2], 318.29 K, x1 = 0.7232	0.463	–
[2], 318.3 K, x1 = 0.7962	0.361	–
[2], 318.31 K, x1 = 0.8569	0.278	–
[2], 318.32 K, x1 = 0.9006	0.195	–
[2], 318.33 K, x1 = 0.9435	0.129	–

CCCC[n+]1ccc(C)cc1.F[B-](F)(F)F [1-butyl-4-methylpyridinium tetrafluoroborate] + CCCCCO
[1], 318.15 K
Details	mass density [kg/m3]
x1 = 0.5651	1060.4
x1 = 0.6035	1072.1
x1 = 0.6715	1091.9
x1 = 0.7601	1115.3
x1 = 0.8041	1126.1
x1 = 0.8616	1139.6
x1 = 0.912	1150.8

CCCC[n+]1ccc(C)cc1.F[B-](F)(F)F [1-butyl-4-methylpyridinium tetrafluoroborate] + CCCO
Details	excess molar enthalpy [kcal/mol]	mass density [kg/m3]
[1], 298.15 K, x1 = 0.0154	–	815.6
[1], 298.15 K, x1 = 0.0271	–	827.2
[1], 298.15 K, x1 = 0.2988	–	1006.8
[1], 298.15 K, x1 = 0.3987	–	1047.4
[1], 298.15 K, x1 = 0.4965	–	1079.8
[1], 298.15 K, x1 = 0.5972	–	1107.8
[1], 298.15 K, x1 = 0.6889	–	1129.1
[1], 298.15 K, x1 = 0.696	–	1130.6
[1], 298.15 K, x1 = 0.7812	–	1147.9
[1], 298.15 K, x1 = 0.8841	–	1165.9
[1], 318.15 K, x1 = 0.0549	–	837.6
[1], 318.15 K, x1 = 0.1008	–	875.1
[1], 318.15 K, x1 = 0.1969	–	939.6
[1], 318.15 K, x1 = 0.3103	–	997.6
[1], 318.15 K, x1 = 0.3828	–	1027.5
[1], 318.15 K, x1 = 0.4381	–	1047.4
[1], 318.15 K, x1 = 0.4534	–	1052.4
[1], 318.15 K, x1 = 0.4901	–	1064
[1], 318.15 K, x1 = 0.6039	–	1095.2
[1], 318.15 K, x1 = 0.6726	–	1111.2
[1], 318.15 K, x1 = 0.8248	–	1141.4
[1], 318.15 K, x1 = 0.8967	–	1156.9
[1], 318.15 K, x1 = 0.9191	–	1153.3
[2], 298.15 K, x1 = 0.012	0.0315	–
[2], 298.15 K, x1 = 0.0243	0.0516	–
[2], 298.15 K, x1 = 0.0308	0.0719	–
[2], 298.15 K, x1 = 0.3198	0.596	–
[2], 298.15 K, x1 = 0.3532	0.588	–
[2], 298.15 K, x1 = 0.3908	0.579	–
[2], 298.15 K, x1 = 0.4344	0.56	–
[2], 298.15 K, x1 = 0.4819	0.54	–
[2], 298.15 K, x1 = 0.5374	0.505	–
[2], 298.15 K, x1 = 0.6008	0.457	–
[2], 298.15 K, x1 = 0.6734	0.394	–
[2], 298.15 K, x1 = 0.752	0.315	–
[2], 298.15 K, x1 = 0.8319	0.237	–
[2], 298.15 K, x1 = 0.9181	0.138	–
[2], 318.15 K, x1 = 0.0189	0.0927	–
[2], 318.16 K, x1 = 0.054	0.229	–
[2], 318.17 K, x1 = 0.093	0.351	–
[2], 318.18 K, x1 = 0.1341	0.454	–
[2], 318.19 K, x1 = 0.1775	0.543	–
[2], 318.2 K, x1 = 0.2167	0.609	–
[2], 318.21 K, x1 = 0.2312	0.641	–
[2], 318.22 K, x1 = 0.2581	0.67	–
[2], 318.23 K, x1 = 0.2912	0.692	–
[2], 318.24 K, x1 = 0.331	0.708	–
[2], 318.25 K, x1 = 0.3847	0.704	–
[2], 318.26 K, x1 = 0.4488	0.69	–
[2], 318.27 K, x1 = 0.5249	0.65	–
[2], 318.28 K, x1 = 0.6069	0.585	–
[2], 318.29 K, x1 = 0.6964	0.496	–
[2], 318.3 K, x1 = 0.7815	0.405	–
[2], 318.31 K, x1 = 0.846	0.309	–
[2], 318.32 K, x1 = 0.9043	0.197	–
[2], 318.33 K, x1 = 0.9568	0.104	–

CCCCCO [pentan-1-ol]
Details	mass density [kg/m3]
[3]	796.1

[4]
Details	refractive index
298.15 K	1.4078
318.15 K	1.4003
